Test results published in article doi:10.1101/2024.08.19.608619, “Discovery of potent SARS-CoV-2 nsp3 macrodomain inhibitors uncovers lack of translation to cellular antiviral response” (bioRxiv, 2024).
“And” between values parts separate entries of the source, which are not always exact repeats. Equal entries are not always repeated. Where two headings read alike, the source gives them in different places.

Legend:
SARS-CoV-2 nsp3-mac1 = SARS-CoV-2 nsp3-mac1 (Severe acute respiratory syndrome coronavirus 2, UniProt P0DTD1); assay: biochemical
SARS-CoV-2 = assay: Antiviral effect in iPSC-derived pneumocyte system; assay type: cell-based; details: iPSC pneumocytes SARS-CoV-2 antiviral effect; for perc_max_measured: maximum measured response of dose series; for perc_min_measured: minimum measured response of dose series
[1] = Hepatic microsomal stability, MLM; assay type: in vitro ADME
[2] = iPSC pneumocytes cytotoxicity; assay type: cell-based; details: protocol iPSC pneumocytes cytotoxicity
From the text: (§1) Supplement media-1.zip/Cytotoxicity.csv, table | column: cc10; cc50; perc_min_measured; perc_max_measured

iPSC pneumocytes = iPSC pneumocytes cytotoxicity; assay type: cell-based; details: for perc_max_measured: highest measured response of the dose series; for perc_min_measured: lowest measured response of the dose series
From the text: as §1

in vitro = details: human; for CC50 at 24 h: HeLa-ACE2 cells (uninfected)
MDR1 = assay: Permeability Papp (AB) MDR1/MDCKII; details: dog; for Papp A→B: A to B; for Papp B→A: B to A
HeLa-ACE2 cells = details: read-out: 50.0, 1440 min
Nsp3-mac1 = Nsp3-mac1 (Severe acute respiratory syndrome coronavirus 2, UniProt P0DTD1); assay: ADPr hydrolase assay (LC-MS/MS); assay type: biochemical, SARS-CoV-2; details: Nsp3-mac1 200 nM, αNAD+ 8 μM
Protocol: ADPr hydrolase activity assay was conducted in 96-well plate with pre-dispensed compounds in 8-point dose response starting from 4 μM (control wells were backfilled with DMSO). […] Nsp3-mac1 200 nM in final assay concentration was added to all wells besides “NAD+ alone” well. The plate was centrifuged at 1,500 rpm for 1 min, and then Incubated at room temperature for 15 min. After incubation, αNAD+ in final concentration of 8 μM were added to each well, and the plate was centrifuged again for 1 min. Then, the plate was incubated under shaking at room temperature for 2.45 h, followed by freezing at −80°C until LC-MS/MS analysis.
A 30-μl sample aliquot was mixed with 90 μl of methanol and 1μl of 50 μM 15N5-AMP (an internal standard). The mix was shaken for 10 min, then centrifuged (~21,000 g) for 5 min to precipitate the protein. […]
Mass detection was carried out using electrospray ionization in the positive mode. […] Analytes were detected using multiple reaction monitoring (MRM, m/z) with the following precursor and fragment masses at selected collision energy (eV, indicated in brackets): 560 > 136 (34) and 560 > 348 ([16]) for ADPR, 664 > 524 ([15]) and 664 > 541.7 ([15]) for αNAD+, 353.1 > 97 ([28]) and 353.1 > 141 ([20]) for […] (IS) m/z. […]

H1 (h) = biological target: T1, H1 (h) (Homo sapiens, UniProt P35367); assay: In vitro CEREP profiling, H1 (h) (antagonist radioligand); assay type: binding; details: test compound concentration 10 uM; for inhibition at 10 µM: read-out: perc_inhibition (% inhibition of the binding of a ligand specific for each target)
T1 construct: purchased Eurofins Cerep (SafetyScreen44), recognised from the panel format
From the text: (§2) Supplement media-1.zip/Safety_Panel_Profile.csv, table | column: perc_inhibition

[3] = Vero E6/TMPRSS2 cytotoxicity with P-gp inhibitor; assay type: cell-based; details: African green monkey, Vero E6/TMPRSS2 cells, with P-gp inhibitor (name and concentration not stated)
From the text: as §1

AR(h) = assay: In vitro CEREP profiling, AR(h) (agonist radioligand); assay type: binding, human; details: test compound concentration 10 uM
From the text: as §2

CB2 (h) = biological target: T2, CB2 (h) (Homo sapiens, UniProt P34972); assay: In vitro CEREP profiling, CB2 (h) (agonist radioligand); assay type: binding; details: test compound 10 uM; for inhibition at 10 µM: read-out: perc_inhibition (% inhibition of the binding of a ligand specific for each target)
T2 construct: purchased Eurofins Cerep (SafetyScreen44), recognised from the panel format
From the text: as §2

[4] = In vitro dog liver microsomal stability; assay type: in vitro ADME
From the text: Supplement media-1.zip/Hepatic_Microsomal_Stability.csv, table | column: clint; t_half

hERG = hERG (Homo sapiens, UniProt Q12809); assay: In vitro CEREP profiling, Potassium Channel hERG (human)- [3H] Dofetilide; assay type: binding; design: purchased Eurofins Cerep (SafetyScreen44), recognised from the panel format; details: hERG potassium channel binding assay, probe [3H] Dofetilide, test compound concentration 10 uM, read-out: perc_inhibition, % inhibition of the binding of a ligand specific for each target
From the text: as §2

[5] = Severe acute respiratory syndrome coronavirus 2
[6] = In vitro mouse liver microsomal stability
[7] = In vitro mouse liver microsomal stability; no cofactor
[8] = protocol iPSC pneumocytes cytotoxicity
[9] = MDCK-MDR1, papp_a_to_b_mean, In vitro MDR1-MDCKII permeability, mean
[10] = In vitro mouse liver microsomal stability, no cofactor
[11] = liver microsomes; In vitro mouse liver microsomal stability
[12] = MDCK-MDR1, efflux_ratio, In vitro MDR1-MDCKII permeability, no inhibitor
[13] = MDCK-MDR1, papp_a_to_b_mean, In vitro MDR1-MDCKII permeability, no inhibitor
[14] = MDCK-MDR1, papp_b_to_a_mean, In vitro MDR1-MDCKII permeability, no inhibitor

T1 sequence (P35367 whole entry): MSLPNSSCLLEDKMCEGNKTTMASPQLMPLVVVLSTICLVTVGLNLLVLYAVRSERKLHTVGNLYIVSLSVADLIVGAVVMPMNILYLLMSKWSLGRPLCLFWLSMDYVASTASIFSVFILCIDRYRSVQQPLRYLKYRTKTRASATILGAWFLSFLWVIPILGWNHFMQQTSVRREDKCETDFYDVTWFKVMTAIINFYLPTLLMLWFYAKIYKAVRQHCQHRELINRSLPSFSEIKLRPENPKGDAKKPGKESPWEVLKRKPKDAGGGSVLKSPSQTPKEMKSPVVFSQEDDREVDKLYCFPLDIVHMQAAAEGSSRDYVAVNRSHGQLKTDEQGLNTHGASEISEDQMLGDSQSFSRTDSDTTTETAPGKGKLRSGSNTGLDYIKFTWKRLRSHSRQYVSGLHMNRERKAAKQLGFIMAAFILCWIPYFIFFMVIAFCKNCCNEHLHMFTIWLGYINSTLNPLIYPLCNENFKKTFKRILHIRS
T2 sequence (P34972 whole entry): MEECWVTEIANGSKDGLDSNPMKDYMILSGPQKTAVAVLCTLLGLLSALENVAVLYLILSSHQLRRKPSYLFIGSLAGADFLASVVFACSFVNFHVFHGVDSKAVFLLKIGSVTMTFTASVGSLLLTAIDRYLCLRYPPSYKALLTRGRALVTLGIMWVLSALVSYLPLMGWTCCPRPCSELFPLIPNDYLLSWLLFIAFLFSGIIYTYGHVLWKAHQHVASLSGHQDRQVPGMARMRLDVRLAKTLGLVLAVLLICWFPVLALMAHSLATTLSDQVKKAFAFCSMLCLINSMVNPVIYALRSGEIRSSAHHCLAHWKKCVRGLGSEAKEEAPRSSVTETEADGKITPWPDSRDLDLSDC
hERG, sequence (Q12809 whole entry): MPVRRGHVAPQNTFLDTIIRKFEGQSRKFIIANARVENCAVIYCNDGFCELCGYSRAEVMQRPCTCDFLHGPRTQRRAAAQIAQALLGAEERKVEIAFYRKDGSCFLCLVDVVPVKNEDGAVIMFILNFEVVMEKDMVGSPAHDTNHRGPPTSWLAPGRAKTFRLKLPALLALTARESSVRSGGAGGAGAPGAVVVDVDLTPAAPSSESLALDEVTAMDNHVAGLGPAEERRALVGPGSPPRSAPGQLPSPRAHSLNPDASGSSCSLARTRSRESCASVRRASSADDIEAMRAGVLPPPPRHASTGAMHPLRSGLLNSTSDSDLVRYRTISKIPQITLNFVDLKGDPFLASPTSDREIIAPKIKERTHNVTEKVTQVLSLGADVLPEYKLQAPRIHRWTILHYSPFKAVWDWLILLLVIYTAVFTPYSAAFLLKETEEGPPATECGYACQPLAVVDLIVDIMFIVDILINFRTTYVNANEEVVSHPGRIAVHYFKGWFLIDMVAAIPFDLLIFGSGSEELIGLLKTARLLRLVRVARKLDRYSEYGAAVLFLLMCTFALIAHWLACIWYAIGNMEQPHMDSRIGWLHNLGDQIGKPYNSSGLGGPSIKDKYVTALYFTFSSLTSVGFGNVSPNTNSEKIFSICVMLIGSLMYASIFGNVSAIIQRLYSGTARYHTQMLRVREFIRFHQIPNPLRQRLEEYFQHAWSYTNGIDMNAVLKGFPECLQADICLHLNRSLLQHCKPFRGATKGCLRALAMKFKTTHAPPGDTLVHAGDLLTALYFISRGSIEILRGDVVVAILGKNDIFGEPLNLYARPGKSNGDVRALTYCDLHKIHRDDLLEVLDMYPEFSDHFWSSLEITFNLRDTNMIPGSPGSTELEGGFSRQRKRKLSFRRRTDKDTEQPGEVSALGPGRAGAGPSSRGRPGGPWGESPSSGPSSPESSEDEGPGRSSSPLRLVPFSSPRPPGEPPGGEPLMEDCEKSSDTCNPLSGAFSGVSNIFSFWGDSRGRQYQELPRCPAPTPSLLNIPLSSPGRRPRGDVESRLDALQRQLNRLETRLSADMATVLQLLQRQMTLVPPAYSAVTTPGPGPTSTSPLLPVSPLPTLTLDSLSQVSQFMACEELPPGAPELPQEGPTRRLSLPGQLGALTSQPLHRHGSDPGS

Row | SMILES | EC90 (SARS-CoV-2; [5]) [µM] | EC50 (SARS-CoV-2) [µM] | perc_max_measured (SARS-CoV-2) | perc_remaining [1, 6] | t_half [1, 6] | perc_remaining_no_cofactor [1, 7] [%] | perc_max_measured (iPSC pneumocytes; [8]) | perc_min_measured (iPSC pneumocytes; [8]) | Papp A→B (MDR1; [9]) [×10⁻⁶ cm/s] | perc_min_measured (SARS-CoV-2) [%] | clint [1, 6] | perc_remaining_no_cofactor [1, 10] [%] | IC50 (Nsp3-mac1) [µM] | microsomal CLint [1, 11] [µL/min/mg] | inhibition at 10 µM (H1 (h)) [%] | CC50 [3] [µM] | perc_inhibition (% inhibition of the binding of a ligand specific for each target) (AR(h)) [%] | inhibition at 10 µM (CB2 (h)) [%] | t_half [4] [min] | CC50 at 24 h (in vitro) [µM] | other results
1 | CC(C)C(Nc1ncnc2[nH]ccc12)c1ccc2c(c1)S(=O)(=O)CCC2 (stereo not drawn) [ASAP-0008327] | > 50 | 29.9 | 138.005% and 187.741% | 10.0% | 12.1 min | 103.0 | 97.729% and 94.012% | 81.556% and 88.355% | 3.3 | – | – | – | – | – | – | – | – | – | – | – | IC50 (SARS-CoV-2 nsp3-mac1; IC50, nsp3-mac1 activity, Figures 1-3 and text): 0.14 µM; EC50 (SARS-CoV-2; Severe acute respiratory syndrome coronavirus 2, iPSC): > 50 µM; microsomal CLint ([1]; mouse, liver microsomes, In vitro mouse liver microsomal stability): 138 µL/min/mg; CC50 [2]: > 50 µM; cc10 (iPSC pneumocytes; [8]): > 50.0 µM; CC50 (in vitro): > 50 µM
2 | CC(C)[C@@H](Nc1ncnc2[nH]c(-c3cnn(C)c3C#N)cc12)c1ccc2c(n1)OCCO2 [ASAP-0008418] | – | 12.7 | 116.418% | 10.0% and 6.0% | 12.0 min and 9.9 min | 110.0 | 95.683% | 63.391% | – | 5.314 | 139.0 µL/min/mg and 169.0 µL/min/mg | 101.0 | – | – | – | – | – | – | – | – | EC90 (SARS-CoV-2): 15.6 µM; CC50 (HeLa-ACE2 cells; ASAP-0008327-001=ASAP-0008418-001): > 50 µM
3 | CC(C)C(Nc1ncnc2[nH]c(C(=O)NC3CCN(C)C3)cc12)c1ccc2c(c1)S(=O)(=O)CCC2 (stereo not drawn) [ASAP-0011198] | > 50 | – | 101.646% | 80.0% | 151.0 min | – | – | – | 2.94 | 52.305 | – | 92.0 | 0.42 | 11 | 2 | > 5 | -5 | -8 | > 139.0 | > 20 | IC50 (SARS-CoV-2 nsp3-mac1; HTRF IC50, Figure 6, tool compounds): 0.065 µM; EC50 (SARS-CoV-2; [5]): > 50 µM; perc_max_measured (iPSC pneumocytes): 99.57%; perc_min_measured (iPSC pneumocytes): 87.748%; microsomal CLint ([4]; liver microsomes): < 5 µL/min/mg; efflux ratio (MDR1; [12]): 1.3; Papp A→B (MDR1; [13]): 0.0323 ×10⁻⁶ cm/s; Papp B→A (MDR1; [14]): 0.0411 ×10⁻⁶ cm/s; efflux ratio (MDR1; MDCK-MDR1, with Cyclosporin A, efflux_ratio_inhibitor, MDR1-MDCKII, with inhibitor Cyclosporin A): 1.7; Papp A→B (MDR1; MDCK-MDR1, with Cyclosporin A, papp_a_to_b_inhibitor_mean, MDR1-MDCKII, with inhibitor Cyclosporin A): < 0.01 ×10⁻⁶ cm/s; inhibition at 10 µM (hERG): 7%
4 | Cn1ncc(-c2cc3c(N[C@@H](c4ccc5c(n4)OCCO5)C(C)(C)C)ncnc3[nH]2)c1C#N [ASAP-0011221] | – | – | – | 2.0% | 7.4 min | – | – | – | – | – | 226.0 µL/min/mg | 94.0 | – | – | – | – | 5 | – | 38.8 | – | perc_inhibition (% inhibition of the binding of a ligand specific for each target) (H1 (h)): 7%; perc_inhibition (% inhibition of the binding of a ligand specific for each target) (CB2 (h)): 31%; clint [4]: 17.8 µL/min/mg; CC50 (HeLa-ACE2 cells; ASAP-0008327-001=ASAP-0011221-001, 50.0, 1440 min): > 10 µM
5 | Cc1nn(C)cc1-c1cc2c(NC(c3ccc4c(c3)S(=O)(=O)CCC4)C(C)C)ncnc2[nH]1 (stereo not drawn) [ASAP-0011446] | – | – | – | 4.0% | 8.3 min | – | – | – | – | – | – | 104.0 | 0.28 | 202 | 0 | > 5 | 6 | -8 | – | > 20 | IC50 (SARS-CoV-2 nsp3-mac1; HTRF IC50, Figure 4B, bioactive pure enantiomer): 0.021 µM; efflux ratio (MDR1; [12]): 41.1; Papp A→B (MDR1; [13]): 0.0911 ×10⁻⁶ cm/s; Papp B→A (MDR1; [14]): 3.7 ×10⁻⁶ cm/s; efflux ratio (MDR1; MDCK-MDR1, with Verapamil, efflux_ratio_inhibitor, MDR1-MDCKII, with inhibitor Verapamil): 21.8; Papp A→B (MDR1; MDCK-MDR1, with Verapamil, papp_a_to_b_inhibitor_mean, MDR1-MDCKII, with inhibitor Verapamil): 0.216 ×10⁻⁶ cm/s; Papp B→A (MDR1; MDCK-MDR1, with Verapamil, papp_b_to_a_inhibitor_mean, MDR1-MDCKII, with inhibitor Verapamil): 4.7 ×10⁻⁶ cm/s; inhibition at 10 µM (hERG): 3%
